Data published in patent publication US11578100B2, “Cyclic peptides, cyclic peptide conjugates and methods of use thereof” (Florida Atlantic University Board of Trustees, priority 2018, dated 2023).
Where a SMILES comes first, the peptide text is derived from it. Bridges are numbered along the chain shown (N, C = ends). Where no end group is shown, it is not given here. [ ]: non-standard residue; d: D form. Trp(5-OH) = N[C@@H](Cc1c[nH]c2ccc(O)cc12)C(=O)O; Tic = O=C(O)[C@@H]1Cc2ccccc2CN1

Key:
mice [1] = assay: 55° C. warm water tail-withdrawal test; type: in vivo, mouse; details: i.n. administration
mice [2] = assay: observation of adverse effects after i.n. administration
[3] = peptide level in mouse brain after i.n. or i.p. administration (LC-MS/MS)
μ opioid receptor (MOR) = biological target: T1, μ opioid receptor (MOR) (Homo sapiens, UniProt P35372); assay: opioid receptor protein binding radioassay, MOR
T1 construct: expressed in transfected cells; host or cells: CHO cells
T1 sequence (P35372 whole entry): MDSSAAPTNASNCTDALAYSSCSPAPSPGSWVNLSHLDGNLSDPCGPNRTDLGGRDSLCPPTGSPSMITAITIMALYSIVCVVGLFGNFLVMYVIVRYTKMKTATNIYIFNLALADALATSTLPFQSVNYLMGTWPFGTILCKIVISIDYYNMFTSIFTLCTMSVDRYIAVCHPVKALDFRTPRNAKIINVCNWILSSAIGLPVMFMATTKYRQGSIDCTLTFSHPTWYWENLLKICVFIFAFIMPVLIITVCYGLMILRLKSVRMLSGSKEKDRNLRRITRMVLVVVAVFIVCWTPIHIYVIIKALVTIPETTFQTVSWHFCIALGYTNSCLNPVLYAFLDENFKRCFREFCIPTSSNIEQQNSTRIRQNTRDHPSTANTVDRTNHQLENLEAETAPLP

κ opioid receptor (KOR) = biological target: T2, κ opioid receptor (KOR) (Homo sapiens, UniProt P41145); assay: opioid receptor protein binding radioassay, KOR
T2 construct: expressed in transfected cells; host or cells: CHO cells
T2 sequence (P41145 whole entry): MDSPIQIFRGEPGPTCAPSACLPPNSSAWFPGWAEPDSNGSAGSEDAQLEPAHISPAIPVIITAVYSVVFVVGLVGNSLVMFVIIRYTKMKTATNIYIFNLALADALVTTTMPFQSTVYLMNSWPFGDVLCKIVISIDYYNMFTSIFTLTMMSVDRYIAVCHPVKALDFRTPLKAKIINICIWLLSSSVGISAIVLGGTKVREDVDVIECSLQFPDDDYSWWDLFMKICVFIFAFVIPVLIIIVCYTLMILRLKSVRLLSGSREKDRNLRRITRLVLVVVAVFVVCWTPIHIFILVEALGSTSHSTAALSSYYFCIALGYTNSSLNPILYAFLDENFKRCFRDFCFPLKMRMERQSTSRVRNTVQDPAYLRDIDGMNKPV

δ opioid receptor (DOR) = biological target: T3, δ opioid receptor (DOR) (Homo sapiens, UniProt P41143); assay: opioid receptor protein binding radioassay, DOR
T3 construct: expressed in transfected cells; host or cells: CHO cells
T3 sequence (P41143 whole entry): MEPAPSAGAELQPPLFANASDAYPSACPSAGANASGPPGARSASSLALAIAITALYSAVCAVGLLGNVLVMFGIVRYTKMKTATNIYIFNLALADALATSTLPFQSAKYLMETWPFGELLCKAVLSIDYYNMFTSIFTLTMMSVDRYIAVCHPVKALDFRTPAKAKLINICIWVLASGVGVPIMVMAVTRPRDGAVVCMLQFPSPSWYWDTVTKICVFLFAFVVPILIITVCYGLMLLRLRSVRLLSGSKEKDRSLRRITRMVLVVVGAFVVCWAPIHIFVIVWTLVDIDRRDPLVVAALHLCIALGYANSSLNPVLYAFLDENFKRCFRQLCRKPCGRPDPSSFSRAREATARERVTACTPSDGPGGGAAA

[4] = stability in 100% mouse brain homogenate; type: in vitro ADME; details: 37° C., RP-HPLC and MALDI TOF MS
Description: Peptides Stability Under Physiologically Relevant Conditions and Mode of Action Stability of DADLE-OL in 100% human cerebrospinal fluid and 100% mouse brain homogenate at 37° C. was determined. The disappearance of the intact peptides and formation of proteolytic products was monitored by RP-HPLC and MALDI TOF mass spectrometry. […] Once diffused into the brain, DOR active sequence is released due to proteolytic hydrolysis of DADLE-OL. Fragment 1 was synthesized, and activities of the parent DADLE-OL and fragment 1 were tested in the cAMP inhibition assay (cAMP AlphaScreen™ Assay, Perkin Elmer).

mice [5] = assay: rotarod test of motor coordination; details: peptides i.n.; U50,488 i.p.
[6] = 30 min after intranasal delivery
Text: Anatomical and physiological studies identified the midbrain periaqueductal gray (PAG) and its descending projections to the rostral ventromedial medulla (RVM) and spinal cord dorsal horn, as a primary anatomical pathway mediating opioid-based analgesia.

mice [7] = assay: conditioned place preference / aversion; details: mouse, in vivo
DOR = biological target: T4, DOR (Mus musculus, UniProt P32300); assay: antagonism of i.c.v. SNC-80 after i.n. pretreatment; type: in vivo; details: SNC-80 i.c.v.
T4 construct: from tissue; host or cells: living mouse (CNS); SNC-80 i.c.v. after i.n. TIPP-OL
T4 sequence (P32300 whole entry): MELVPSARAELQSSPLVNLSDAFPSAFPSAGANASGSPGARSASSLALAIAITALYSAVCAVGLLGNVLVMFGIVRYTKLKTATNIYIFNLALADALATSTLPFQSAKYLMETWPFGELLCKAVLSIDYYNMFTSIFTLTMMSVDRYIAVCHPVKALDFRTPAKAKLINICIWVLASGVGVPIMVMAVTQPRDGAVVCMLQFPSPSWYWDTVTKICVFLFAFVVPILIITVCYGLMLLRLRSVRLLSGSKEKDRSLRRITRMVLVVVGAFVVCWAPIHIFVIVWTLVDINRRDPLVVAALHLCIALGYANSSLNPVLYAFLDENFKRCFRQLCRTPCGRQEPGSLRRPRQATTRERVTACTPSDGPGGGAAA

CC(C)C[C@@H](NC(=O)[C@H](Cc1ccccc1)NC(=O)CNC(=O)[C@@H](C)NC(=O)[C@@H](N)Cc1ccc(O)cc1)C(=O)O [DADLE, [D-Ala^2, D-Leu^5] enkephalin, reference compound]
antinociception in tail-withdrawal test (mice [1]): did not themselves produce antinociception

CC(C)C[C@@H]1NC(=O)[C@H](C(C)C)NC(=O)CNC(=O)[C@H](CC(N)=O)NC(=O)[C@@H]2CCCN2C(=O)[C@H](Cc2ccc(O)cc2)NC(=O)[C@H](CCCNC(=N)N)NC(=O)[C@H](Cc2ccccc2)NC(=O)[C@@H](NC(=O)[C@H](CCCCN)NC(=O)[C@@H]2CCCN2C(=O)[C@H](CO)NC(=O)[C@H](C)NC(=O)[C@@H](N)Cc2ccc(O)cc2)CSSC[C@@H](C(=O)N[C@H](C(N)=O)[C@@H](C)O)NC(=O)[C@H](C)NC1=O [OL, Y^1A^2S^3P^4K^5-cyclo[C^6F^7R^8Y^9P^10N^11G^12V^13L^14A^15C^16]T^17, reference compound] (H-YASPKCFRYPNGVLACT-NH2; disulfide 6-16; N-terminus and C-terminus assumed)
adverse effects (mice [2]): no adverse effects were observed | detection in mouse brain after i.n. administration ([3]; 30 minutes after i.n. (30 μg, 6 μL/nostril)): can be detected in the mouse brain | time to elimination from the brain ([3]; after i.n. administration): about 240 minutes | Kd opioid receptor μ (μ opioid receptor (MOR)): n.o. | Kd opioid receptor K (κ opioid receptor (KOR)): n.o. | Kd opioid receptor δ (δ opioid receptor (DOR)): n.o. | stability in 100% mouse brain homogenate [4]: proteolytic cleavage of the N-terminal Tyr^1 and Ala^2

CC(C)C[C@@H]1NC(=O)[C@H](CCCCN)NC(=O)[C@@H]2CCCN2C(=O)[C@H](Cc2c[nH]c3ccccc23)NC(=O)[C@H](Cc2ccccc2)NC(=O)CNC(=O)[C@H](CCCNC(=N)N)NC(=O)[C@H](Cc2ccccc2)NC(=O)[C@@H](NC(=O)[C@H](CCCCN)NC(=O)[C@@H]2CCCN2C(=O)[C@H](CO)NC(=O)[C@H](C)NC(=O)[C@@H](N)Cc2ccc(O)cc2)CSSC[C@@H](C(=O)N[C@H](C(N)=O)[C@@H](C)O)NC(=O)[C@H](C)NC1=O [OLKOR-L1, Y^1A^2S^3P^4K^5-cyclo[C^6F^7R^8G^9F^10W^11P^12K^13L^14A^15C^16]T^17] (H-YASPKCFRGFWPKLACT-NH2; disulfide 6-16)
adverse effects (mice [2]): no other adverse effects were observed | motor coordination in rotarod test (mice [5]): no impairment in motor coordination in mice was observed

CC(C)C[C@@H]1NC(=O)[C@H](CCCCN)NC(=O)[C@@H]2CCCN2C(=O)[C@H](Cc2c[nH]c3ccccc23)NC(=O)[C@H](Cc2ccccc2)NC(=O)CNC(=O)[C@H](CCCNC(=N)N)NC(=O)[C@H](Cc2ccccc2)NC(=O)[C@@H](NC(=O)[C@H](CCCCN)NC(=O)[C@@H]2CCCN2C(=O)[C@H](CO)NC(=O)[C@H](C)NC(=O)[C@@H](N)Cc2c[nH]c3ccc(O)cc23)CSSC[C@@H](C(=O)N[C@H](C(N)=O)[C@@H](C)O)NC(=O)[C@H](C)NC1=O [OLKOR-L1-5HTrp, 5-HTrp^1-A^2S^3P^4K^5-cyclo[C^6F^7R^8G^9F^10W^11P^12K^13L^14A^15C^16]T^17] (H-[Trp(5-OH)]ASPKCFRGFWPKLACT-NH2; disulfide 6-16)
5-HTrp accumulation in the midbrain [6]: significant increase in 5-HTrp accumulation in the midbrain | conditioned place aversion (CPA) (mice [7]): produced CPA | conditioned place preference (reward) (mice [7]): do not produce reward

CC(C)C[C@@H]1NC(=O)[C@H](CC(N)=O)NC(=O)[C@H](C(C)C)NC(=O)[C@@H]2CCCN2C(=O)[C@H](Cc2ccccc2)NC(=O)[C@H](Cc2c[nH]cn2)NC(=O)[C@H](CCCNC(=N)N)NC(=O)[C@H](Cc2ccccc2)NC(=O)[C@@H](NC(=O)[C@H](CCCCN)NC(=O)[C@@H]2CCCN2C(=O)[C@H](CO)NC(=O)[C@H](C)NC(=O)[C@@H](N)Cc2ccc(O)cc2)CSSC[C@@H](C(=O)N[C@H](C(N)=O)[C@@H](C)O)NC(=O)[C@H](C)NC1=O [OLMOR-L1, Y^1A^2S^3P^4K^5-cyclo[C^6F^7R^8H^9F^10P^11V^12N^13L^14A^15C^16]T^17] (H-YASPKCFRHFPVNLACT-NH2; disulfide 6-16)
conditioned place aversion (CPA) (mice [7]): did not induce significant conditioned place preference or aversion | conditioned place preference (reward) (mice [7]): did not induce significant conditioned place preference or aversion | motor coordination in rotarod test (mice [5]): did not affect motor coordination and balance

Y^1A^2S^3P^4K^5-cyclo[C^6F^7R^8Y^9Tic^10F^11F^12V^13L^14A^15C^16]T^17 (YASPKCFRY[Tic]FFVLACT; disulfide 6-16 (inferred)) [TIPP-OL]
antagonism of the effect of SNC-80 (DOR): fully antagonizes the effect of a potent DOR agonist SNC-80

Y^1P^2W^3F^4K^5-cyclo[C^6F^7R^8Y^9Tic^10F^11F^12V^13L^14A^15C^16]T^17 (YPWFKCFRY[Tic]FFVLACT; disulfide 6-16 (inferred)) [TIPP-EM1-OL]
antinociception in tail-withdrawal test (mice [1]): exhibits antinociceptive effects
